Measured values taken from patent US7601357B2 (priority 2005, dated 2009).
Several values for one entry are separate records, joined by “and”; a condition that tells them apart may be missing. Equal entries are not always repeated.

T1: LIPY (Mycobacterium tuberculosis, UniProt I6Y2J4)
T1 construct: The 24 open-reading frames (ORFs) were amplified from the genomic DNA of M. tuberculosis H37Rv; 6xHis (pET200 D-TOPO N-terminal fusion) (N); made in house; host or cells: E. coli BL21 Star (DE3)
T1 sequence (I6Y2J4 1-437): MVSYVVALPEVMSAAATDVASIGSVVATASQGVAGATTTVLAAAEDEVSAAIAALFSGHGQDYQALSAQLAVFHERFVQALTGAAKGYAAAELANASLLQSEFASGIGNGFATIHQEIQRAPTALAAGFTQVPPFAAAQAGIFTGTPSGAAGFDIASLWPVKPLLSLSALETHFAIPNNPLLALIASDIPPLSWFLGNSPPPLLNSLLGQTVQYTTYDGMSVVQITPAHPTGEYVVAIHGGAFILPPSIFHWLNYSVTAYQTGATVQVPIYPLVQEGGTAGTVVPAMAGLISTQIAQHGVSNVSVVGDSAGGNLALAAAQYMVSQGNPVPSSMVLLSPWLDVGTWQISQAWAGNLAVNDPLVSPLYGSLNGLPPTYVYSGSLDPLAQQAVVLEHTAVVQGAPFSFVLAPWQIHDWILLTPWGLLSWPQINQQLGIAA


Test system: not given
Type: biochemical, M. tuberculosis
Conditions: pH 8

| Molecule | TG hydrolase activity [nmol/mg/min] |
| --- | --- |
| LIPI: M. tuberculosis putative lipase/esterase gene product expressed in E. coli (protein, UniProt P71668 1-320, looked up, expressed in E. coli) Esterase LipI: MPSLDNTADEKPAIDPILLKVLDAVPFRLSIDDGIEAVRQRLRDLPRQPVHPELRVVDLAIDGPAGPIGTRIYWPPTCPDQAEAPVVLYFHGGGFVMGDLDTHDGTCRQHAVGADAIVVSVDYRLAPEHPYPAAIEDAWAATRWVAEHGRQVGADLGRIAVAGDSAGGTIAAVIAQRARDMGGPPIVFQLLWYPSTLWDQSLPSLAENADAPILDVKAIAAFSRWYAGEIDLHNPPAPMAPGRAENLADLPPAYIAVAGYDPLRDDGIRYGELLAAAGVPVEVHNAQTLVHGYVGYAGVVPAATEATNRGLVALRVVLHG | 0 |
| LIPM: M. tuberculosis putative lipase/esterase gene product expressed in E. coli (protein, UniProt Q50681 1-431, looked up, expressed in E. coli) Probable carboxylic ester …: MGAPRLIHVIRQIGALVVAAVTAAATINAYRPLARNGFASLWSWFIGLVVTEFPLPTLASQLGGLVLTAQRLTRPVRAVSWLVAAFSALGLLNLSRAGRQADAQLTAALDSGLGPDRRTASAGLWRRPAGGGTAKTPGPLRMLRIYRDYAHDGDISYGEYGRANHLDIWRRPDLDLTGTAPVLFQIPGGAWTTGNKRGQAHPLMSHLAELGWICVAINYRHSPRNTWPDHIIDVKRALAWVKAHISEYGGDPDFIAITGGSAGGHLSSLAALTPNDPRFQPGFEEADTRVQAAVPFYGVYDFTRLQDAMHPMMLPLLERMVVKQPRTANMQSYLDASPVTHISADAPPFFVLHGRNDSLVPVQQARGFVDQLRQVSKQPVVYAELPFTQHAFDLLGSARAAHTAIAVEQFLAEVYATQHAGSEPGPAVAIP | 0.02 |
| LIPL: M. tuberculosis putative lipase/esterase gene product expressed in E. coli (protein, UniProt P71778 1-429, looked up) Esterase/beta-lactamase LipL: MMVDTGVDHRAVSSHDGPDAGRRVFGAADPRFACVVRAFASMFPGRRFGGGALAVYLDGQPVVDVWKGWADRAGWVPWSADSAPMVFSATKGMTATVIHRLADRGLIDYEAPVAEYWPAFGANGKATLTVRDVMRHQAGLSGLRGATQQDLLDHVVMEERLAAAVPGRLLGKSAYHALTFGWLMSGLARAVTGKDMRLLFREELAEPLDTDGLHLGRPPADAPTRVAEIIMPQDIAANAVLTCAMRRLAHRFSGGFRSMYFPGAIAAVQGEAPLLDAEIPAANGVATARALARMYGAIANGGEIDGIRFLSRELVTGLTRNRRQVLPDRNLLVPLNFHLGYHGMPIGNVMPGFGHVGLGGSIGWTDPETGVAFALVHNRLLSPLVMTDHAGFVGIYHLIRQAAAQARKRGYQPVTPFGAPYSEPGAAAG | 3.4 |
| LIPJ: M. tuberculosis putative lipase/esterase gene product expressed in E. coli (protein, UniProt O07732 1-462, looked up, expressed in E. coli) Bifunctional lipase/adenylate …: MAQAPHIHRTRYAKCGDMDIAYQVLGDGPTDLLVLPGPFVPIDSIDDEPSLYRFHRRLASFSRVIRLDHRGVGLSSRLAAITTLGPKFWAQDAIAVMDAVGCEQATIFAPSFHAMNGLVLAADYPERVRSLIVVNGSARPLWAPDYPVGAQVRRADPFLTVALEPDAVERGFDVLSIVAPTVAGDDVFRAWWDLAGNRAGPPSIARAVSKVIAEADVRDVLGHIEAPTLILHRVGSTYIPVGHGRYLAEHIAGSRLVELPGTDTLYWVGDTGPMLDEIEEFITGVRGGADAERMLATIMFTDIVGSTQHAAALGDDRWRDLLDNHDTIVCHEIQRFGGREVNTAGDGFVATFTSPSAAIACADDIVDAVAALGIEVRIGIHAGEVEVRDASHGTDVAGVAVHIGARVCALAGPSEVLVSSTVRDIVAGSRHRFAERGEQELKGVPGRWRLCVLMRDDATRTR | 0.04 |
| LIPC: M. tuberculosis putative lipase/esterase gene product expressed in E. coli (protein, UniProt P96402 1-403, looked up) Esterase LipC: MNQRRAAGSTGVAYIRWLLRARPADYMLALSVAGGSLPVVGKHLKPLGGVTAIGVWGARHASDFLSATAKDLLTPGINEVRRRDRASTQEVSVAALRGIVSPDDLAVEWPAPERTPPVCGALRHRRYVHRRRVLYGDDPAQLLDVWRRKDMPTKPAPVLIFVPGGAWVHGSRAIQGYAVLSRLAAQGWVCLSIDYRVAPHHRWPRHILDVKTAIAWARANVDKFGGDRNFIAVAGCSAGGHLSALAGLTANDPQYQAELPEGSDTSVDAVVGIYGRYDWEDRSTPERARFVDFLERVVVQRTIDRHPEVFRDASPIQRVTRNAPPFLVIHGSRDCVIPVEQARSFVERLRAVSRSQVGYLELPGAGHGFDLLDGARTGPTAHAIALFLNQVHRSRAQFAKEVI | 3.3 |
| LIPN: M. tuberculosis putative lipase/esterase gene product expressed in E. coli (protein, UniProt P95125 1-376, looked up, expressed in E. coli) Carboxylic ester hydrolase …: MTKSLPGVADLRLGANHPRMWTRRVQGTVVNVGVKVLPWIPTPAKRILSAGRSVIIDGNTLDPTLQLMLSTSRIFGVDGLAVDDDIVASRAHMRAICEAMPGPQIHVDVTDLSIPGPAGEIPARHYRPSGGGATPLLVFYHGGGWTLGDLDTHDALCRLTCRDADIQVLSIDYRLAPEHPAPAAVEDAYAAFVWAHEHASDEFGALPGRVAVGGDSAGGNLSAVVCQLARDKARYEGGPTPVLQWLLYPRTDFTAQTRSMGLFGNGFLLTKRDIDWFHTQYLRDSDVDPADPRLSPLLAESLSGLAPALIAVAGFDPLRDEGESYAKALRAAGTAVDLRYLGSLTHGFLNLFQLGGGSAAGTNELISALRAHLSRV | 0 |
| LIPQ: M. tuberculosis putative lipase/esterase gene product expressed in E. coli (protein, UniProt I6Y9F7 1-421, looked up) Esterase LipQ: MHIASVTSRCSRAGAEALRQGAQLAADARDTCRAGALLLRGSPCAIGWVAGWLSAEFPARVVTGHALSRISPRSIGRFGTSWAAQRADQILHAALVDAFGPDFRDLVWHPTGEQSEAARRSGLLNLPHIPGPHRRYAAQTSDIPYGPGGRENLLDIWRRPDLAPGRRAPVLIQVPGGAWTINGKRPQAYPLMSRMVELGWICVSINYSKSPRCTWPAHIVDVKRAIAWVRENIADYGGDPDFITITGGSAGAHLAALAALSANDPALQPGFESADTAVQAAAPYYGVYDLTNAENMHEMMMPFLEHFVMRSRYVDNPGLFKAASPISYVHSEAPPFFVLHGEKDPMVPSAQSRAFSAALRDAGAATVSYAELPNAHHAFDLAATVRSRMVAEAVSDFLGVIYGRRMGARKGSLALSSPPAS | 0.11 |

Molecular target: T1, LIPY
Type: biochemical
Conditions: not given

| Molecule | Effect of salt on LIPY activity (in words) | LIPY activity (triolein hydrolase) Mean ± SD |
| --- | --- | --- |
| [Cl-].[Cl-].[Mg+2] [MgCl2] | inhibited the activity | 306.3 ± 111.1 nmol/mg/min and 219.9 ± 34.3 nmol/mg/min |
| [Cl-].[Cl-].[Co+2] [CoCl2] | inhibited the activity | – |
| [Ca+2].[Cl-].[Cl-] [CaCl2] | inhibited | – |
| [Cl-].[Cl-].[Zn+2] [ZnCl2] | inhibited the activity | – |
| CC(=O)[O-].[K+] [CH3COO.K, potassium acetate] | enhanced the activity | 692.6 ± 57.0 nmol/mg/min and 749.0 ± 73.3 nmol/mg/min |
| [Cl][Mn][Cl] [MnCl2] | inhibited the activity | – |
| CC(=O)[O-].[Na+] [CH3COO.Na, sodium acetate] | enhanced the activity | 681.7 ± 80.3 nmol/mg/min and 729.3 ± 96.5 nmol/mg/min |
| [Cl-].[Na+] [NaCl] | enhanced the activity | 681.3 ± 87.2 nmol/mg/min |
| [Cl-].[K+] [KCl] | enhanced the activity | 675.2 ± 103.5 nmol/mg/min and 686.8 ± 68.8 nmol/mg/min |

Same assay, conditions: 0.5 µM

| Molecule | Inhibition of LIPY activity [%] |
| --- | --- |
| CCOP(=O)(OCC)Oc1ccc([N+](=O)[O-])cc1 [E-600, diethyl-p-nitrophenyl phosphate, reference compound] | 99.5 |

Same assay, conditions: 0.1%

| Molecule | Effect of detergent on LIPY lipase activity |
| --- | --- |
| polyethylene glycol tert-octylphenyl ether [Triton X-100, reference compound] | stimulated the activity |

Same assay, conditions: all concentrations from 0.1-2.0%

| Molecule | Effect of detergent on LIPY lipase activity |
| --- | --- |
| CCCCCCCCCCCC(=O)OCCOCCOCCOCCOCCOCCOCCOCCOCCOCCOCCOCCOCCOCCOCCOCCOCCOCCOCCOCCOCC(OCCOCCOCCOCCOCCOCCOCCOCCOCCOCCOCCOCCOCCOCCOCCOCCOCCOCCOCCOCCO)C1OCC(OCCOCCOCCOCCOCCOCCOCCOCCOCCOCCOCCOCCOCCOCCOCCOCCOCCOCCOCCOCCO)C1OCCOCCOCCOCCOCCOCCOCCOCCOCCOCCOCCOCCOCCOCCOCCOCCOCCOCCOCCOCCO (stereo not drawn) [Tween-20, polyethylene glycol sorbitan monolaurate, reference compound] | inhibited |

Same assay, conditions: concentrations above 2 mM

| Molecule | Effect of detergent on LIPY lipase activity |
| --- | --- |
| CCCCCCCCCCCCOS(=O)(=O)[O-].[Na+] [SDS, sodium dodecyl sulfate, reference compound] | severely inhibited |

Same assay, conditions: concentrations higher than 0.1%

| Molecule | Effect of detergent on LIPY lipase activity |
| --- | --- |
| polyethylene glycol tert-octylphenyl ether [Triton X-100, reference compound] | inhibitory |

Same assay, conditions: concentrations up to 2 mM

| Molecule | Effect of detergent on LIPY lipase activity |
| --- | --- |
| CCCCCCCCCCCCOS(=O)(=O)[O-].[Na+] [SDS, sodium dodecyl sulfate, reference compound] | stimulated slightly |
